Blank lines part the entries; values can stand above or below the compound they belong to.
Columns and labels:
[1] = molecular target: T1, Prostaglandin G/H synthase 1 (Ovis aries, UniProt P05979); assay: Inhibition of ovine COX1 assessed as reduction in PGF2alpha production using arachidonic acid as substrate by colorimetric method
T1 sequence (P05979 whole entry): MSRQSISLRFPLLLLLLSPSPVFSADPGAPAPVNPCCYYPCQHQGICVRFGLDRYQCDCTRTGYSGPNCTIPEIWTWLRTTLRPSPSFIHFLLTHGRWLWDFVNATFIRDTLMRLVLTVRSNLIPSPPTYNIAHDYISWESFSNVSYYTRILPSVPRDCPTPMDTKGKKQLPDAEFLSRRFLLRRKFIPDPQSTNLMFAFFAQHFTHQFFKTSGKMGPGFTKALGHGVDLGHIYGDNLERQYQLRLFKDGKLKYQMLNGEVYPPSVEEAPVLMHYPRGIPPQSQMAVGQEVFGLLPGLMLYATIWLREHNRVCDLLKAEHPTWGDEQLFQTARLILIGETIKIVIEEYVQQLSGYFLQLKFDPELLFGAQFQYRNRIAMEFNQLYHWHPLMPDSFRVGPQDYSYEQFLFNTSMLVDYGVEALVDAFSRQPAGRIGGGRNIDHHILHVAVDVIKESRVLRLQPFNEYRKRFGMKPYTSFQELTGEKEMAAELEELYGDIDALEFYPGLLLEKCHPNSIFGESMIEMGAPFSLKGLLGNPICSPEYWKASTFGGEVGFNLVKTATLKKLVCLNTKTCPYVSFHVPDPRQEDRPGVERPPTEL

Rattus norvegicus [2] = assay: Anti-inflammatory activity in rat acute inflammation model assessed as inhibition of formalin-induced paw edema at 5 mg/kg, po measured after 4 hrs relative to negative control
Rattus norvegicus [3] = assay: Anti-inflammatory activity in rat acute inflammation model assessed as inhibition of formalin-induced paw edema at 5 mg/kg, po measured after 4 hrs relative to celecoxib; assay type: functional
Rattus norvegicus [4] = assay: Anti-inflammatory activity in rat acute inflammation model assessed as inhibition of formalin-induced paw edema at 5 mg/kg, po measured after 4 hrs relative to control; assay type: functional
[5] = Inhibition of soybean 15-LOX using linoleic acid as substrate by colorimetric method; set-up: species or system Glycine max
THP-1 [6] = assay: Cytotoxicity against human THP1 cells assessed as reduction in cell viability after 30 hrs by MTS assay; assay type: cell-based; details: thp-1, 30 h
Rattus norvegicus [7] = assay: Ulcerogenicity in Wistar rat assessed as lymphocytic infilteration in gastric mucosa po after 6 hrs by H and E staining based light microscopic method; details: in vivo
Rattus norvegicus [8] = assay: Ulcerogenicity in Wistar rat assessed as hyperemia in gastric mucosa at 60 mg/kg, po after 6 hrs; assay type: toxicity, organism-based; details: in vivo
THP-1 [9] = assay: Inhibition of PMA-induced human THP1 monocytes differentiation in to macrophages preincubated for 6 hrs followed by PMA stimulation by phase contrast microscopic method; assay type: functional, cell-based
Rattus norvegicus [10] = assay: Ulcerogenicity in Wistar rat assessed as necrosis of gastric mucosa at 60 mg/kg, po after 6 hrs by H and E staining based light microscopic method; assay type: toxicity, organism-based; details: in vivo
Rattus norvegicus [11] = assay: Ulcerogenicity in Wistar rat assessed as maceration of gastric mucosa at 60 mg/kg, po after 6 hrs by H and E staining based light microscopic method; assay type: toxicity, organism-based; details: in vivo
Rattus norvegicus [12] = assay: Ulcerogenicity in Wistar rat assessed as congested blood vessels in gastric mucosa esophagus at 60 mg/kg, po after 6 hrs by H and E staining based light microscopic method; assay type: toxicity, organism-based; details: in vivo
Rattus norvegicus [13] = assay: Ulcerogenicity in Wistar rat assessed as effect on gastro-esophageal junction at 60 mg/kg, po after 6 hrs by H and E staining based light microscopic method; assay type: toxicity, organism-based; details: in vivo
[14] = molecular target: T2, Serine/threonine-protein kinase Chk1 (Homo sapiens, UniProt O14757); assay: Inhibition of CHK1 (unknown origin)
T2 sequence (O14757 whole entry): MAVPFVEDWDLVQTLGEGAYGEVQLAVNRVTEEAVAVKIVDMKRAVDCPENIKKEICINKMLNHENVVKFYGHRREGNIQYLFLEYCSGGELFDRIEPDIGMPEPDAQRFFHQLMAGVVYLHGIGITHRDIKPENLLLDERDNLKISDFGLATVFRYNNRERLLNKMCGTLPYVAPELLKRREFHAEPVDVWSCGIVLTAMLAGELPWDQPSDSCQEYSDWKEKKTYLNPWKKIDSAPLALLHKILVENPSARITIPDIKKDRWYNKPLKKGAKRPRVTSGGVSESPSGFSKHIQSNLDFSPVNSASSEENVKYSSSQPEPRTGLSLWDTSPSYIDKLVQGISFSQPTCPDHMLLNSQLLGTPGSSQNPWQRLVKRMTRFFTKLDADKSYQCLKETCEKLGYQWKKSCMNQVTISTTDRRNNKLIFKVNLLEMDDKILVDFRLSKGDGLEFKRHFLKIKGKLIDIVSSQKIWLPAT

Structure (SMILES): COc1ccc(-n2c(SCc3cn(-c4ccc(Br)cc4)nn3)nc3ccccc3c2=O)cc1
IC50 [1]: 7.63 µM

Structure (SMILES): COc1ccc(-n2c(SCc3cc(-c4ccc(OC)c(OC)c4)no3)nc3ccccc3c2=O)cc1
IC50 [1]: 6.53 µM

Structure (SMILES): C#CCSc1nc2ccccc2c(=O)n1-c1ccc(Cl)cc1
IC50 [1]: 4.26 µM

Structure (SMILES): O=c1c2ccccc2nc(SCc2cn(-c3ccccc3)nn2)n1-c1ccccc1
IC50 [1]: 7.33 µM

Structure (SMILES): O=c1c2ccccc2nc(SCc2cc(-c3ccc(Cl)cc3)no2)n1-c1ccccc1
IC50 [1]: 8.79 µM

Structure (SMILES): O=c1c2ccccc2nc(SCc2cc(-c3ccc(Cl)cc3)no2)n1-c1ccc(Br)cc1
IC50 [1]: 9.14 µM

Structure (SMILES): COc1ccc(-c2cc(CSc3nc4ccccc4c(=O)n3-c3ccc(Cl)cc3)on2)cc1OC
IC50 [1]: 10.2 µM

Structure (SMILES): O=c1c2ccccc2nc(SCc2cn(-c3ccccc3)nn2)n1-c1ccc(Cl)cc1
IC50 [1]: 8.24 µM

Structure (SMILES): COc1ccc(-n2c(SCc3cn(-c4ccc(C(=O)O)cc4)nn3)nc3ccccc3c2=O)cc1
IC50 [1]: 11.9 µM

Structure (SMILES): O=C(O)c1ccc(-n2cc(CSc3nc4ccccc4c(=O)n3-c3ccc(Br)cc3)nn2)cc1
IC50 [1]: 8.67 µM

Structure (SMILES): CCCC[C@@H](Sc1nc2ccccc2c(=O)n1-c1cccc(C)c1)C(=O)N1CCC[C@]2(CCCNC2)C1
IC50 [14]: 1.3 µM

Structure (SMILES): C#CCSc1nc2ccccc2c(=O)n1-c1ccc(OC)cc1
IC50 [1]: 6.54 µM

Structure (SMILES): C#CCSc1nc2ccccc2c(=O)n1-c1ccc(Br)cc1
Activity (Rattus norvegicus [13]): Non-Toxic | IC50 [5]: 6.21 µM | Activity (THP-1 [6]): Non-Toxic | inhibition in vivo at 5 mg/kg (Rattus norvegicus [2]): 50% | IC50 [1]: 3.87 µM | Activity (Rattus norvegicus [8]): Non-Toxic | inhibition in vivo at 5 mg/kg (Rattus norvegicus [3]): 225% | inhibition in vivo at 5 mg/kg (Rattus norvegicus [4]): 70.8% | IC50 (THP-1 [9]): 4.77 µM

Structure (SMILES): COc1ccc(-c2cc(CSc3nc4ccccc4c(=O)n3-c3ccccc3)on2)cc1OC
IC50 [1]: 9.23 µM

Structure (SMILES): COc1ccc(-n2c(SCc3cc(-c4ccc(Cl)cc4)no3)nc3ccccc3c2=O)cc1
IC50 [1]: 7.68 µM

Structure (SMILES): C#CCSc1nc2ccccc2c(=O)n1-c1ccccc1
IC50 [1]: 3.78 µM

Structure (SMILES): COc1ccc(-c2cc(CSc3nc4ccccc4c(=O)n3-c3ccc(Cl)cc3)on2)cc1
IC50 [1]: 11.2 µM

Structure (SMILES): COc1ccc(-n2c(SCc3cn(-c4ccccc4)nn3)nc3ccccc3c2=O)cc1
IC50 [1]: 10.5 µM

Structure (SMILES): Cc1ccc(-c2cc(C(F)(F)F)nn2-c2ccc(S(N)(=O)=O)cc2)cc1 [CELECOXIB]
Activity (Rattus norvegicus [13]): Non-Toxic | inhibition in vivo at 5 mg/kg (Rattus norvegicus [4]): 33.3%

Structure (SMILES): O=C(O)Cc1ccccc1Nc1c(Cl)cccc1Cl [DICLOFENAC]
Activity (THP-1 [6]): Non-Toxic | inhibition in vivo at 5 mg/kg (Rattus norvegicus [3]): 208% | inhibition in vivo at 5 mg/kg (Rattus norvegicus [4]): 66.7% | IC50 (THP-1 [9]): 4.86 µM

Structure (SMILES): Cc1ccc(Cl)c(Nc2ccccc2C(=O)O)c1Cl [MECLOFENAMATE SODIUM]
IC50 [5]: 5.64 µM

Structure (SMILES): CC(c1cc2ccccc2s1)N(O)C(N)=O (stereo unspecified) [ZILEUTON]
IC50 [5]: 2.41 µM

The next lines start with results.

IC50 [1]: 5.89 µM
Structure (SMILES): O=C(O)c1ccc(-n2cc(CSc3nc4ccccc4c(=O)n3-c3ccccc3)nn2)cc1

IC50 [1]: 5.89 µM
Structure (SMILES): O=c1c2ccccc2nc(SCc2cn(-c3ccc(Br)cc3)nn2)n1-c1ccccc1

IC50 [1]: 5.61 µM
Structure (SMILES): O=c1c2ccccc2nc(SCc2cc(-c3ccc(Cl)cc3)no2)n1-c1ccc(Cl)cc1

IC50 [1]: 4.67 µM
Structure (SMILES): COc1ccc(-c2cc(CSc3nc4ccccc4c(=O)n3-c3ccccc3)on2)cc1
inhibition in vivo at 5 mg/kg (Rattus norvegicus [2]): 50% | inhibition in vivo at 5 mg/kg (Rattus norvegicus [3]): 192% | inhibition in vivo at 5 mg/kg (Rattus norvegicus [4]): 61.1%

IC50 [5]: 3.98 µM | IC50 [1]: 3.89 µM | IC50 (THP-1 [9]): 99.4 µM
Structure (SMILES): O=c1c2ccccc2nc(SCc2cn(-c3ccc(Br)cc3)nn2)n1-c1ccc(Br)cc1
Activity (THP-1 [6]): Non-Toxic | inhibition in vivo at 5 mg/kg (Rattus norvegicus [2]): 50% | Activity (Rattus norvegicus [7]): Toxic | Activity (Rattus norvegicus [8]): Toxic | inhibition in vivo at 5 mg/kg (Rattus norvegicus [3]): 133% | inhibition in vivo at 5 mg/kg (Rattus norvegicus [4]): 41.7%

IC50 [5]: 7.62 µM | IC50 [1]: 2.97 µM | IC50 (THP-1 [9]): 0.13 µM
Structure (SMILES): O=C(O)c1ccc(-n2cc(CSc3nc4ccccc4c(=O)n3-c3ccc(Cl)cc3)nn2)cc1
Activity (Rattus norvegicus [10]): Non-Toxic | Activity (THP-1 [6]): Non-Toxic | inhibition in vivo at 5 mg/kg (Rattus norvegicus [2]): 50% | Activity (Rattus norvegicus [7]): Non-Toxic | Activity (Rattus norvegicus [8]): Toxic | inhibition in vivo at 5 mg/kg (Rattus norvegicus [3]): 225% | Activity (Rattus norvegicus [11]): Non-Toxic | Activity (Rattus norvegicus [12]): Toxic | inhibition in vivo at 5 mg/kg (Rattus norvegicus [4]): 70.8%

IC50 [1]: 6.32 µM
Structure (SMILES): O=c1c2ccccc2nc(SCc2cn(-c3ccc(Cl)cc3)nn2)n1-c1ccc(Cl)cc1

IC50 [5]: 4.33 µM | IC50 [1]: 4.36 µM | IC50 (THP-1 [9]): 1.24 µM
Structure (SMILES): O=c1c2ccccc2nc(SCc2cn(-c3ccc(Cl)cc3)nn2)n1-c1ccccc1
Activity (Rattus norvegicus [13]): Non-Toxic | Activity (THP-1 [6]): Non-Toxic | inhibition in vivo at 5 mg/kg (Rattus norvegicus [2]): 50% | Activity (Rattus norvegicus [8]): Non-Toxic | inhibition in vivo at 5 mg/kg (Rattus norvegicus [3]): 225% | inhibition in vivo at 5 mg/kg (Rattus norvegicus [4]): 70.8%

IC50 [1]: 4.78 µM
Structure (SMILES): O=c1c2ccccc2nc(SCc2cn(-c3ccccc3)nn2)n1-c1ccc(Br)cc1

IC50 [1]: 4.22 µM
Structure (SMILES): COc1ccc(-n2c(SCc3cn(-c4ccc(Cl)cc4)nn3)nc3ccccc3c2=O)cc1

IC50 [1]: 6.23 µM
Structure (SMILES): COc1ccc(-c2cc(CSc3nc4ccccc4c(=O)n3-c3ccc(OC)cc3)on2)cc1

IC50 [1]: 5.34 µM
Structure (SMILES): COc1ccc(-c2cc(CSc3nc4ccccc4c(=O)n3-c3ccc(Br)cc3)on2)cc1
inhibition in vivo at 5 mg/kg (Rattus norvegicus [2]): 50% | inhibition in vivo at 5 mg/kg (Rattus norvegicus [3]): 192% | inhibition in vivo at 5 mg/kg (Rattus norvegicus [4]): 61.1%

IC50 [5]: 5.21 µM | IC50 [1]: 5.27 µM | IC50 (THP-1 [9]): 5.63 µM
Structure (SMILES): O=c1c2ccccc2nc(SCc2cn(-c3ccc(Cl)cc3)nn2)n1-c1ccc(Br)cc1
Activity (Rattus norvegicus [10]): Non-Toxic | Activity (THP-1 [6]): Non-Toxic | inhibition in vivo at 5 mg/kg (Rattus norvegicus [2]): 50% | Activity (Rattus norvegicus [7]): Non-Toxic | Activity (Rattus norvegicus [8]): Toxic | inhibition in vivo at 5 mg/kg (Rattus norvegicus [3]): 225% | Activity (Rattus norvegicus [11]): Non-Toxic | Activity (Rattus norvegicus [12]): Toxic | inhibition in vivo at 5 mg/kg (Rattus norvegicus [4]): 70.8%

IC50 [1]: 3.67 µM
Structure (SMILES): O=c1c2ccccc2nc(SCc2cn(-c3ccc(Br)cc3)nn2)n1-c1ccc(Cl)cc1

IC50 [1]: 4.57 µM
Structure (SMILES): COc1ccc(-c2cc(CSc3nc4ccccc4c(=O)n3-c3ccc(Br)cc3)on2)cc1OC
inhibition in vivo at 5 mg/kg (Rattus norvegicus [2]): 50% | inhibition in vivo at 5 mg/kg (Rattus norvegicus [3]): 167% | inhibition in vivo at 5 mg/kg (Rattus norvegicus [4]): 51.4%

Source: ChEMBL document CHEMBL4251628, “Novel click modifiable thioquinazolinones as anti-inflammatory agents: Design, synthesis, biological evaluation and docking study” (Eur J Med Chem, 2018)
